These results are taken from article PMC9853869, “The Myxobacterial Antibiotic Myxovalargin: Biosynthesis, Structural Revision, Total Synthesis, and Molecular Characterization of Ribosomal Inhibition” (Journal of the American Chemical Society, 2023).

≈ marks a conversion by molar mass, not a printed value. *1 amine or outer side, *2 acyl side, *3 side chain or, on linkers, in order; H or OH if unused. Where a SMILES comes first, the peptide text is derived from it. [ ]: non-standard residue; d: D form. The star is where a group is joined. X1 = O=C(C[C@H](N[*:1])c1ccc(O)cc1)[*:2]; dVal(3-OH) = CC(C)(O)[C@@H](N)C(=O)O; X2 = CCC(C)=C(N[*:1])C(=O)[*:2]; Isovaleryl = CC(C)CC(=O)*; Agmatine = N=C(N)NCCCCN*; Isobutyryl = CC(C)C(=O)*; NMeA = CN[C@@H](C)C(=O)O; ΔVal = CC(C)=C(N)C(=O)O

Data set [1] deals with wildtype E. coli ribosomes. The format is biochemical. The conditions noted are these: purified wildtype 70S ribosomes, increasing concentrations.
Data set [2] has as its system 23S rRNA of the large ribosomal subunit. The class given is binding, E. coli. The conditions noted are these: 10 μM or 100 μM.
The subject of data set [3] is E. coli ribosomes bearing the A2503G mutation. The format is biochemical.
The subject of data set [4] is Micrococcus luteus DSM-1790. As to conditions: DSM-1790, 24 h.
For data set [5], the system named is Mycobacterium smegmatis mc2155. As to conditions: mc2155, 48 h.
In data set [6] the test system is Pseudomonas aeruginosa PA14. The conditions noted are these: PA14, 24 h.
Data set [7] relates to Enterococcus faecium DSM-20477. As to conditions: DSM-20477, 24 h.
The subject of the next data set is ribosome. Description: Toeprinting assay on ErmBL mRNA. The format is biochemical, E. coli. The conditions noted are these: 10–100 μM, absence of isoleucine. The protocol:
To address the mechanism of action of myxovalargins, we employed the toeprinting assay, which uses reverse transcription to monitor the position of ribosomes on a mRNA (Figure 6a).[24] The assay was performed in the absence of isoleucine (Ile) such that in the absence of antibiotics, ribosomes can initiate at the AUG start codon but become stuck after translating 15 amino acids when the Ile “catch-codon” enters the A-site (Figure 6a,b). […] We also performed toeprinting reactions in the presence of 5 μM erythromycin (Ery), which allows ribosomes to translate the first 10 amino acids of the ErmBL mRNA but then stalls them with GAU (Asp) codon in the P-site (Figure 6a,b), as reported previously.[25]−[27] After pre-incubation with Ery, we titrated reactions with increasing MyxB, which also led to a loss of the Ery-dependent ErmBL stalling band and appearance of ribosomes positioned on the start codon (Figure 6b), consistent with the overlap in ribosomal binding sites of MyxB and Ery (Figure 6c,d). […] Indeed, in the MyxB-SRC, we observed the simultaneous presence of P-site tRNA and MyxB (Figure 5d) but no ribosomes with additional presence of A-site tRNA (Figure S7-5). […]

Data set [8] deals with Pseudomonas aeruginosa PAO1. As to conditions: PAO1, 24 h.
The test system of data set [9] is Escherichia coli DSM-1116. As to conditions: DSM-1116, 24 h.
Data set [10] concerns Escherichia coli K12 ΔtolC. The conditions noted are these: K12, 24 h.
For data set [11], the system named is Staphylococcus aureus DSM-346. As to conditions: DSM-346, 24 h.
For data set [12], the system named is Chromobacterium violaceum DSM-30191. As to conditions: DSM-30191, 24 h.
The subject of another data set is eukaryotic translation. The conditions noted are these: cited from earlier work. The text has this: Microorganisms continue to be a major source for innovative antibiotics. Ubiquitously found but understudied soil-dwelling predatory myxobacteria have proven to be a rich source of bioactive compounds.[3]−[5] […] The myxovalargin structure was described in 1987 as comprising some congeners with Myxovalargin A (MyxA) ...

In the next data set the test system is M. tuberculosis. The conditions noted are these: mouse, in vivo.
For the next data set, the system named is Pasteurella multocida. As to conditions: 10 mg/kg enrofloxacin, s.c.

As usually defined, the MIC is the lowest concentration that inhibits growth of the organism. A lower MIC goes with inhibition by little substance. With `CCC(C)=C(NC(=O)[C@H](NC(=O)[C@@H](NC(=O)[C@@H](CCCNC(=N)N)NC(=O)C(NC(=O)[C@H](NC(=O)C[C@H](NC(=O)[C@H](NC(=O)[C@H](NC(=O)[C@H](C)N(C)C(=O)[C@H](C)NC(=O)C(NC(=O)C(C)C)=C(C)C)C(C)C)C(C)C)c1ccc(O)cc1)C(C)C)=C(C)C)C(C)C)C(C)C)C(=O)N[C@H](C)C(=O)N[C@@H](C(=O)NCCCCNC(=N)N)C(C)(C)O` [MyxB] (Isobutyryl-[ΔVal]A[NMeA][dV][dV][X1][dV][ΔVal][dR]V[dV][X2][dA][dVal(3-OH)]-Agmatine), the “in vitro translation of firefly luciferase reporter” value in data set [1] is recorded as “inhibited by MyxB in a dose-dependent fashion”; in data set [3] it was “completely resistant”. Further, in data set [2], the “protection from dimethyl sulfate modification” value is given as “protects multiple 23S rRNA nucleotides”. Moreover, the MIC is listed as 2 µg/mL (≈ 1.2 µM) in [4]; 8 µg/mL (≈ 4.81 µM) in data set [5]; 32 µg/mL (≈ 19.2 µM) in data set [6]; 1 µg/mL (≈ 0.601 µM) in data set [7]; 64 µg/mL (≈ 38.5 µM) in data set [8]; 64 µg/mL (≈ 38.5 µM) in data set [9]. Further, the MIC in data set [10] is recorded as 32 µg/mL (≈ 19.2 µM); in [11], 8 µg/mL (≈ 4.81 µM); in data set [12] it was 32 µg/mL (≈ 19.2 µM). Also, the “position of arrested ribosomes (toeprint)” value in the data set on ribosome is given as “ribosomes positioned with the AUG start codon in the P-site”.

Take `CCC(C)=C(NC(=O)[C@H](NC(=O)[C@@H](NC(=O)[C@@H](CCCNC(=N)N)NC(=O)C(NC(=O)[C@H](NC(=O)C[C@H](NC(=O)[C@H](NC(=O)[C@H](NC(=O)[C@H](C)N(C)C(=O)[C@H](C)NC(=O)C(NC(=O)CC(C)C)=C(C)C)C(C)C)C(C)C)c1ccc(O)cc1)C(C)C)=C(C)C)C(C)C)C(C)C)C(=O)N[C@H](C)C(=O)N[C@@H](C(=O)NCCCCNC(=N)N)C(C)(C)O` [Myxovalargin] (Isovaleryl-[ΔVal]A[NMeA][dV][dV][X1][dV][ΔVal][dR]V[dV][X2][dA][dVal(3-OH)]-Agmatine): in the data set with eukaryotic translation, the “inhibition of eukaryotic translation” value is “did not inhibit eukaryotic translation”. For the same compound, the “MIC (antitubercular activity)” value against M. tuberculosis H37Rv was 0.2 µg/mL (≈ 0.119 µM). Besides, the “toxicity in infected mice” value in the data set with M. tuberculosis was “moribund within 1 week”.

With `CCN1CCN(c2cc3c(cc2F)c(=O)c(C(=O)O)cn3C2CC2)CC1` [enrofloxacin, reference compound], in the data set with Pasteurella multocida, the “Mean bacteria in liver” value was 0 CFU/g and the “Survival rate 48 hpi” value worked out at 100%.

On to `CC(C)=C(NC(=O)C(C)C)C(=O)N[C@@H](C)C(=O)N(C)[C@@H](C)C(=O)N[C@@H](C(=O)N[C@@H](C(=O)N[C@@H](CC(=O)N[C@@H](C(=O)NC(C(=O)N[C@H](CCCNC(=N)N)C(=O)N[C@H](C(=O)N[C@@H](C(=O)NC(C(=O)N[C@H](C)C(=O)N[C@@H](C(=O)NCCCCNC(=N)N)C(C)(C)O)=C(C)C)C(C)C)C(C)C)=C(C)C)C(C)C)c1ccc(O)cc1)C(C)C)C(C)C` [Myx C] (Isobutyryl-[ΔVal]A[NMeA][dV][dV][X1][dV][ΔVal][dR]V[dV][ΔVal][dA][dVal(3-OH)]-Agmatine), for which the MIC in data set [4] was 2 µg/mL (≈ 1.21 µM); in data set [5] it was 4 µg/mL (≈ 2.43 µM); in data set [6], 32 µg/mL (≈ 19.4 µM); in [7], 1 µg/mL (≈ 0.606 µM); in data set [8], 64 µg/mL (≈ 38.8 µM); in data set [9], 64 µg/mL (≈ 38.8 µM). Further, the MIC is reported as 32 µg/mL (≈ 19.4 µM) in data set [10], 2 µg/mL (≈ 1.21 µM) in data set [11] and 8 µg/mL (≈ 4.85 µM) in data set [12].
